In patent publication US6946547B2, “Ecstasy-class analogs and use of same in detection of ecstasy-class compounds” (Microgenics Corporation, priority 2000, dated 2005):
Marks after values point to notes of the source that are not given here.

Key:
Antibody 1A9 = test: CEDIA ecstasy-class assay on a Hitachi clinical chemistry analyzer; assay type: binding, mouse; settings: for detection in the CEDIA ecstasy-class MDMA assay: in words
Description: Antibodies obtained using any of the aforementioned techniques are screened or purified not only for their ability to react with an ecstasy-class compound, but also for a low cross-reactivity with potential interfering substances. “Cross reactivity” is determined in a quantitative immunoassay by establishing a standard curve using known dilutions of the target analyte, e.g., MDMA. […] The cross-reactivity is the apparent concentration divided by the actual concentration multiplied by 100. […] Alternatively, the cross-reactivity can be determined in the same type of immunoassay in which the antibody will ultimately be used.
• a. Preparation of Reagents:
Enzyme Donor (ED) Reagent was prepared as a liquid reagent with the components below:
Assay Protocol: The assay was performed on a Hitachi clinical chemistry analyzer as follows: Sample was pipetted into a reaction cuvette. EA reagent, containing antibody, was added. The mixture was incubated at 37° C. for approximately 5 minutes. ED reagent containing […] was subsequently added, and the incubation continued for 4 minutes at 37° C. The rate of substrate hydrolysis was measured photometrically at 570 nm (with subtraction of background at 660 nm) from four to five minutes after ED addition.

[1] = Standard CEDIA DAU Amphetamines assay, Hitachi 911; settings: methamphetamine = 100
[2] = tested on: 1A9 anti-ecstasy antibody; test: Enhanced CEDIA DAU Amphetamines assay (1A9 antibody and ED28-(MB-MDA)2 added); settings: methamphetamine = 100
[3] = Antibody 1A9, Experiment 1, concentration 300 ng/mL
[4] = Antibody 1A9, Experiment 1, concentration 1000 ng/mL
[5] = Antibody 1A9, Experiment 1, concentration 5000 ng/mL
[6] = antibody 1A9, summary of detected ecstasy-class compounds
[7] = Antibody 1A9, Experiment 2, concentration 1,000,000 ng/mL
[8] = Antibody 1A9, Experiment 2, concentration 600,000 ng/mL

CNC(C)Cc1ccc(O)c(OC)c1 (centres unmarked) [HMMA, 4-hydroxy-3-methoxymethamphetamine]
Cross-Reactivity (Antibody 1A9; [3]): <0.1%
Cross-Reactivity (Antibody 1A9; [4]): <0.1%
Cross-Reactivity (Antibody 1A9; [5]): <0.1%
detection in the CEDIA ecstasy-class MDMA assay (Antibody 1A9; antibody 1A9): detected neither

CC(N)Cc1ccc2c(c1)OCO2 (centres unmarked) [MDA, 3,4-methylenedioxyamphetamine]
Cross-Reactivity (Antibody 1A9; [3]): 55%
Cross-Reactivity (Antibody 1A9; [4]): 68* %
Cross-Reactivity (Antibody 1A9; [5]): 63%
Cross-Reactivity (Antibody 1A9; [6]): 55%
Cross-reactivity, Standard CEDIA Amphetamines ([1]; concentration 300 ng/ml): 5
Cross-reactivity, Standard CEDIA Amphetamines ([1]; concentration 500 ng/ml): 4
Cross-reactivity, Enhanced CEDIA Amphetamines ([2]; concentration 300 ng/ml): 81
Cross-reactivity, Enhanced CEDIA Amphetamines ([2]; concentration 500 ng/ml): 91

CCNC(C)Cc1ccc2c(c1)OCO2 (centres unmarked) [MDEA, N-ethyl-3,4-methylenedioxyamphetamine]
Cross-Reactivity (Antibody 1A9; [3]): 155* %
Cross-Reactivity (Antibody 1A9; [4]): 484%
Cross-Reactivity (Antibody 1A9; [6]): 155%
Cross-reactivity, Standard CEDIA Amphetamines ([1]; concentration 300 ng/ml): 22
Cross-reactivity, Standard CEDIA Amphetamines ([1]; concentration 500 ng/ml): 21
Cross-reactivity, Enhanced CEDIA Amphetamines ([2]; concentration 300 ng/ml): 153

CC(N)C(O)c1ccccc1 (centres unmarked) [phenylpropanolamine]
Cross-Reactivity (Antibody 1A9; [7]): 0.0041%

CCC(Cc1ccc2c(c1)OCO2)NC (centres unmarked) [MBDB, N-methyl-1-(3,4-methylenedioxyphenyl)-2-butanamine]
Cross-Reactivity (Antibody 1A9; [3]): 23%
Cross-Reactivity (Antibody 1A9; [4]): 29* %
Cross-Reactivity (Antibody 1A9; [5]): 18%
Cross-Reactivity (Antibody 1A9; [6]): 23%
Cross-reactivity, Standard CEDIA Amphetamines ([1]; concentration 300 ng/ml): 64
Cross-reactivity, Standard CEDIA Amphetamines ([1]; concentration 500 ng/ml): 73
Cross-reactivity, Enhanced CEDIA Amphetamines ([2]; concentration 300 ng/ml): 80
Cross-reactivity, Enhanced CEDIA Amphetamines ([2]; concentration 500 ng/ml): 97

CN[C@@H](C)Cc1ccccc1 [Methamphetamine]
Cross-Reactivity (Antibody 1A9; [8]): 0.056%
detection in the CEDIA ecstasy-class MDMA assay (Antibody 1A9; antibody 1A9): detected neither
Cross-reactivity, Standard CEDIA Amphetamines ([1]; concentration 300 ng/ml): 100
Cross-reactivity, Standard CEDIA Amphetamines ([1]; concentration 500 ng/ml): 100
Cross-reactivity, Enhanced CEDIA Amphetamines ([2]; concentration 300 ng/ml): 100
Cross-reactivity, Enhanced CEDIA Amphetamines ([2]; concentration 500 ng/ml): 100

CCC(N)Cc1ccc2c(c1)OCO2 (centres unmarked) [BDB, 1-(3,4-methylenedioxyphenyl)-2-butanamine]
Cross-Reactivity (Antibody 1A9; [3]): 33%
Cross-Reactivity (Antibody 1A9; [4]): 50* %
Cross-Reactivity (Antibody 1A9; [5]): 30%
Cross-Reactivity (Antibody 1A9; [6]): 33%
Cross-reactivity, Standard CEDIA Amphetamines ([1]; concentration 300 ng/ml): 5
Cross-reactivity, Standard CEDIA Amphetamines ([1]; concentration 500 ng/ml): 7
Cross-reactivity, Enhanced CEDIA Amphetamines ([2]; concentration 300 ng/ml): 105
Cross-reactivity, Enhanced CEDIA Amphetamines ([2]; concentration 500 ng/ml): 125

CNC(C)Cc1ccc2c(c1)OCO2 (centres unmarked) [MDMA, 3,4-methylenedioxymethamphetamine]
Cross-Reactivity (Antibody 1A9; [6]): 100%
Cross-reactivity, Standard CEDIA Amphetamines ([1]; concentration 300 ng/ml): 49
Cross-reactivity, Standard CEDIA Amphetamines ([1]; concentration 500 ng/ml): 50
Cross-reactivity, Enhanced CEDIA Amphetamines ([2]; concentration 300 ng/ml): 129

CN[C@@H](C)[C@@H](O)c1ccccc1 [pseudoephedrine]
Cross-Reactivity (Antibody 1A9; [8]): 0.0017%

(±)ephedrine
Cross-Reactivity (Antibody 1A9; [7]): 0.0047%
